Measurements published in PMC5532363, “Synergistic blending of high-valued heterocycles inhibits growth of Plasmodium falciparum in culture and P. berghei infection in mouse model” (Scientific Reports, 2017).

Assays:
P. berghei NK65 = test: Modified Peter's 4-day suppressive test in P. berghei NK65 infected Swiss albino mice; format: in vivo, Plasmodium berghei; conditions: for effect on parasite load / effect on survival: 50 mg/kg s.c. for four consecutive days (artemisinin 5 mg/kg in combination), vs untreated; for median survival time (MST): 6h/6u 50 mg/kg, artemisinin 5 mg/kg, s.c. for four consecutive days, n = 6/group
Experimental: The antimalarial effect of two active analogues, 6h and 6u (administered at 50 mg/kg of body weight), was determined in mice infected with P. berghei NK65, a strain, which results in high levels of blood-stage parasitemia. […] However, the 6u analogue had better antimalarial efficacy than the 6h analogue (Fig. 6A). As such, we then evaluated the efficacy of 6u (50 mg/kg) in combination with artemisinin (5 mg/kg of body weight) at reduced dosage in the murine malaria model. […] The median survival times of animals treated with Pht 6u alone, as well in combination with ART were 23 and 27.5 days, respectively (P<0.001).
Figure 6 Antimalarial effect of Pht analogs (6h and 6u) alone and in combination with Artemisinin (6u and ART) on parasitemia and survival in mice infected with P. berghei NK65. Mice were injected with 1 × 10^7 P. berghei infected RBCs. After 48 hours mice were treated with control (PBS: untreated), 6h and 6u (alone), and 6u in combination with artemisinin (all injected subcutaneously) for four consecutive days. The % of parasitemia was determined for the groups on days 5, 8 and 15 by randomly selecting 10 different optical fields on blood smears. (A) Administration of 6h and 6u (alone), and 6 u in combination with ART. Data are the mean ± SEM from six animals per treatment group. (B) Survival in the treatment groups (n = 6/group). (C) Photomicrograph of blood smears of untreated versus treatment groups at day 15 post infection (100x magnification). ART, Artemisinin; *P < 0.05. TEXT PRINTED IN THE PICTURE: (B) Phthalimide 6h: MST- 19.5 | (B) Phthalimide 6u: MST- 23 | (B) Artemisinin: MST- 21.5 | (B) Phthalimide 6u+Artemisinin: MST- 27.5
All animal experiments were performed in female Swiss albino mice (4 to 5 weeks old, weighing 25 to 30 g). The animals were housed under standard controlled conditions at 25 °C with a 12-h light-dark cycle and access to sterilized food pellets and water. All experiments were carried out in accordance with the standard procedures approved by the Animal Ethics Committee of the University of Delhi South Campus, under the Control and Supervision of Experiments on Animals (CPCSEA), Ministry of Social Justice and Empowerment, Government of India. […] The antimalarial activity was carried out in accordance with a slightly modified version of the Peter’s 4-day suppressive test[43]. The animals were assigned to each group (n = 6). Subsequently, after 48 hour of postinfection, the parasitemia level reached 1 to 2%, and all the groups of mice were treated by subcutaneous (s.c.) injection with compounds 6h and 6u alone as well in combination with artemisinin solubilized in DMSO. One group was kept as a control and treated with physiological saline. The efficacy of the treatment was monitored by measuring the parasitemia and survival on days 5, 8 and 15 posttreatments by obtaining thin smears of blood withdrawn from the tail vein of infected mice and staining with 10% Giemsa. The level of parasitemia was determined by counting infected and noninfected erythrocytes from 10 to 15 randomly selected optical fields at 100x magnification and expressed as the number of infected erythrocytes per 100 erythrocytes. The survival of mice was recorded and observed for external symptoms, such as change in body weight, ruffled fur, lethargy and paralysis, until 30 or 40 days posttreatment. The reduction in the level of parasitemia was taken as the index for the curative activities of the drugs. The percentage of parasitemia was calculated manually with the Cell Counting Aid software[44] using the formula (total no. of parasitized RBCs)/(total no. of RBCs) × 100.
For in-vivo experiments, statistical differences between two groups were determined by Student’s t test and between multiple groups using one-way analysis of variance (ANOVA), with P values of <0.05, by GraphPad Prism (version 5.01; GraphPad Software, Inc., CA). […]

[1] = MTT cytotoxicity assay in U937 cells; format: cell-based; conditions: human; for selectivity ratio at 24 h: U937 cells (CC50) versus 3D7 parasites (IC50), read-out: selectivity index (SI); for CC50 at 24 h: U937 cells, MTT
Experimental: As a final step in the investigational pipeline, we determined the cytotoxic effect of the four active analogues (6a, 6h, 6m and 6u) in U937 cell lines by measuring 50% cytotoxic concentrations (CC50) and calculating selectivity indices (SIs) as a measure of toxicity in human cells.
Cytotoxicity of the 4 select Pht compounds on human cells was evaluated by assessing cell viability of the U937, a human acute monocyte leukemia cell lines by use of the MTT assay. U937 was acquired from American Type Culture Collection (ATCC, Rockville, MD) and maintained in RPMI 1640 medium supplemented with 10% fetal bovine serum, and Penicillin-streptomycin (1% v/v) (Gibco, UK) at 37 °C. Robust U937 cells at a concentration of 80,000 cells/ml were plated into 96-well plates and incubated for 24 hours. Six concentrations of the Pht compounds were added in a two-fold dilution from starting concentration of 50 to 1.56 µM in triplicate and incubated with the cells for 24 hours. This was followed by addition of 10 µL MTT solution (5 mg/mL) into each well, incubated for 4 hour at 37 °C followed by addition of 50 µL DMSO to dissolve the formazan precipitate according to manufacturer’s protocol. Aliquots were drawn from each well and color intensity was measured spectrophotometrically in an ELISA plate reader (Biotek, ELx800) at 540 nm. The cell viability ratio was calculated by the following formula: % cytotoxicity = [Mean OD of test cells] − [Mean OD of control cells]/[Mean OD of control cells] × 100. Viability counts were then plotted against corresponding drug concentrations to yield cytotoxicity (CC50) through non-linear regression (sigmoid dose-response/variable slope equation). Drug CC50 values were then used to define selectivity indices, which is a measure of drug safety in human relative to parasitic cells and was calculated as the ratio of the CC50 value determined on the U937 cells (cytotoxicity) and the IC50 value determined on parasite growth inhibition 3D7 (anti-plasmodial activity). In this study, we set SI > 2 as cut-off as an indicative of low drug cytotoxicity.

P. falciparum 3D7 = test: Fixed-ratio isobologram drug interaction assay with CQ/DHA, 3D7; format: cell-based, Plasmodium falciparum; conditions: Pf3D7
Experimental: A modified fixed-ratio isobologram method was used to assess interaction between CQ/DHA and Pht analogues. Briefly, a total of 5 solutions containing fixed-ratio mixtures of Pht derivatives with either CQ or DHA were prepared in the following ratios: 1:1, 2:1, 3:2, 2:3, and 1:4. The starting concentrations for ten 2 fold-serial dilutions across the microtiter plate were assigned so that the IC50 of each drug would be in the 5th serial dilution of the plate. Each drug was tested alone and at fixed ratios of its IC50. The assessment of drug interaction was based on the calculation of the fractional inhibitory concentration (FIC) of two drugs in the […]. FIC was calculated for each association by dividing the IC50 of the drug in the combination by the IC50 of the drug alone.

SMILES | effect on parasite load (P. berghei NK65) | effect on survival (P. berghei NK65) | median survival time (MST) (P. berghei NK65) [days] | selectivity ratio at 24 h [1] | CC50 at 24 h [1] [µM] | interaction when combined with CQ and DHA (P. falciparum 3D7)
CC(C)C[C@H](c1nc2ccccc2n1Cc1c[nH]nn1)N1C(=O)c2ccccc2C1=O [Compound 6u] | suppression of the parasite load | improved survival | 23 | 2.31 ± 0.76 | 2.08 ± 1.6 | synergistic activity
CC[C@@H](C)[C@H](c1nc2ccccc2n1Cc1cn(-c2ccc(F)cc2)nn1)N1C(=O)c2ccccc2C1=O [Compound 6h] | suppression of the parasite load | improved survival | 19.5 | 41.2 ± 1.7 | 28.8 ± 0.67 | synergistic activity
